# Measured values published in patent publication US20140073634A1 (Institute For Applied Cancer Science/The University of …, priority 2012, published 2014).
# Test system: 293T-HRE-GFP-luc cells
# Assay: Cell-based reporter assay for IC50 determinations (HRE-luciferase, hypoxia)
# Conditions: 6 h, 6 hrs hypoxia (1% O2), luminescence
# Experimental: Cell-Based Reporter Assay for IC50 Determinations
# 293T-HRE-GFP-luc cells were routinely maintained in DMEM media (high glucose version with GlutaMAX and HEPES, Gibco, catalog #10564) supplemented with 10% fetal bovine serum and 2 μg/mL puromycin (Invitrogen, catalog #A11138-03) using a humidified incubator (normoxia conditions consisting of 37° C., 5% CO2 and ambient O2).
# In preparation for the reporter assay, cells were harvested and resuspended in DMEM media (high glucose version with GlutaMAX and HEPES) supplemented with 10% fetal bovine serum. Cells were inoculated into 384-well white Culturplates (Perkin Elmer catalog #6007680) at a density of 12,000 cells/well in a volume of […]. The microplates were incubated overnight (approximately 17-19 hours) at 37° C. with 5% CO2 and ambient O2. Stock solutions of the test compounds were prepared in DMSO (Sigma, Catalog #D2650) and serially diluted 1:3 using DMSO. Compounds were additionally diluted (1:50) with culturemedium and 10 µL were added per well to the Culturplate. Following a 30 min. incubation under normoxia conditions, the plates were incubated in hypoxia for 6 hrs. (37° C., 5% CO2 and 1% O2). Steadylite Plus (Perkin Elmer, catalog #6016751) was then added ([…]), the plates were mixed on an orbital shaker at room temperature in the dark for 15 min., and luminescence was measured using an Envision plate reader (Perkin Elmer). IC50 values were calculated using a four-parameter logistic curve fit. Results are shown below in Table 2; ND indicates no data.
row,SMILES,IC50
1,"Cc1ccc(Cn2nc(-c3nc(-c4ccc(OC(F)(F)F)cc4)no3)ccc2=O)cc1 [Example 24, 2-(4-Methylbenzyl)-6-(3-(4-(trifluoromethoxy)phenyl)-1,2,4-oxadiazol-5-yl)pyridazin-3(2H)-one]",< 100 nM
2,"CS(=O)(=O)C1CCN(c2cccc(Cn3cc(-c4cc(-c5ccc(OC(F)(F)F)cc5)no4)ccc3=O)c2)CC1 [Example 98, 1-(3-(4-(Methylsulfonyl)piperidin-1-yl)benzyl)-5-(3-(4-(trifluoromethoxy)phenyl)isoxazol-5-yl)pyridin-2(1H)-one]",< 100 nM
3,"COCCOc1cccc(Cn2cc(-c3noc(-c4ccc(C(F)(F)F)cc4)n3)ccc2=O)c1 [Example 193, 1-{[3-(2-methoxyethoxy)phenyl]methyl}-5-{5-[4-(trifluoromethyl)phenyl]-1,2,4-oxadiazol-3-yl}-1,2-dihydropyridin-2-one]",< 100 nM
4,"Cc1ccc(-c2nc(-c3ccc(OC(F)(F)F)cc3)no2)c(=O)n1Cc1cccc(OC(F)F)c1 [Example 266, 1-{[3-(difluoromethoxy)phenyl]methyl}-6-methyl-3-{3-[4-(trifluoromethoxy)phenyl]-1,2,4-oxadiazol-5-yl}-1,2-dihydropyridin-2-one]",100 to 1000 nM
5,"CS(=O)(=O)CCCOc1cccc(Cn2cc(-c3nc(-c4ccc(OC(F)(F)F)cc4)no3)ccc2=O)c1 [Example 170, 1-{[3-(3-methanesulfonylpropoxy)phenyl]methyl}-5-{3-[4-(trifluoromethoxy)phenyl]-1,2,4-oxadiazol-5-yl}-1,2-dihydropyridin-2-one]",100 to 1000 nM
6,"COCCOc1cccc(Cn2cc(-c3noc(-c4ccc(C5=CCOCC5)cc4)n3)ccc2=O)c1 [Example 212, 5-{5-[4-(3,6-dihydro-2H-pyran-4-yl)phenyl]-1,2,4-oxadiazol-3-yl}-1-{[3-(2-methoxyethoxy)phenyl]methyl}-1,2-dihydropyridin-2-one]",< 100 nM
7,"COCCOc1cccc(Cn2cc(-c3nc(-c4ccc(OC(F)(F)F)cc4)co3)ccc2=O)c1 [Example 94, 1-(3-(2-Methoxyethoxy)benzyl)-5-(4-(4-(trifluoromethoxy)phenyl)oxazol-2-yl)pyridin-2(1H)-one]",< 100 nM
8,"COCCOc1cccc(Cn2cc(-c3noc(-c4ccc(C5CC5)cc4)n3)ccc2=O)c1 [Example 67, 5-(5-(4-Cyclopropylphenyl)-1,2,4-oxadiazol-3-yl)-1-(3-(2-methoxyethoxy)benzyl)pyridin-2(1H)-one]",< 100 nM
9,"CC(C)Oc1ccc(-c2nc(-c3ccc(=O)n(Cc4cccc(C(C)(C)O)c4)c3)no2)cc1 [Example 76, 1-(3-(2-Hydroxypropan-2-yl)benzyl)-5-(5-(4-isopropoxyphenyl)-1,2,4-oxadiazol-3-yl)pyridin-2(1H)-one]",< 100 nM
10,"COCCOc1cccc(Cn2cc(-c3noc(-c4ccc(N5CCOC5=O)cc4)n3)ccc2=O)c1 [Example 190, 1-{[3-(2-methoxyethoxy)phenyl]methyl}-5-{5-[4-(2-oxo-1,3-oxazolidin-3-yl)phenyl]-1,2,4-oxadiazol-3-yl}-1,2-dihydropyridin-2-one]",< 100 nM
11,"NCC(O)COc1cccc(Cn2cc(-c3nc(-c4ccc(OC(F)(F)F)cc4)no3)ccc2=O)c1 (stereo not shown) [Example 62, 1-(3-(3-Amino-2-hydroxypropoxy)benzyl)-5-(3-(4-(trifluoromethoxy)phenyl)-1,2,4-oxadiazol-5-yl)pyridin-2(1H)-one]",< 100 nM
12,"O=c1c(-c2nc(-c3ccc(OC(F)(F)F)cc3)no2)cccn1Cc1ccnc(N2CCOCC2)c1 [Example 127, 1-((2-morpholinopyridin-4-yl)methyl)-3-(3-(4-(trifluoromethoxy)phenyl)-1,2,4-oxadiazol-5-yl)pyridin-2(1H)-one]",100 to 1000 nM

# Same assay, conditions: 6 hrs hypoxia (1% O2), luminescence
row,SMILES,IC50
1,"CN1CCN(c2cccc(Cn3cc(-c4ncc(-c5ccc(OC(F)(F)F)cc5)o4)ccc3=O)c2)CC1 [Example 91, 1-(3-(4-Methylpiperazin-1-yl)benzyl)-5-(5-(4-(trifluoromethoxy)phenyl)oxazol-2-yl)pyridin-2(1H)-one]",< 100 nM
